# Where two headings read alike, the source gives them in different places.
# Assays:
# SK-MEL-28 = test: panel of 60 human tumor cell lines, growth inhibition (Melanoma); details: Homo sapiens
# HT29 = test: panel of 60 human tumor cell lines, growth inhibition (Colon Cancer); details: for Percent Growth: HT29
# MDA-MB-468 = test: panel of 60 human tumor cell lines, growth inhibition (Breast Cancer); details: Homo sapiens
# UACC-62 = test: panel of 60 human tumor cell lines, growth inhibition (Melanoma); details: Homo sapiens
# A549/ATCC = test: panel of 60 human tumor cell lines, growth inhibition (Non-Small Cell Lung Cancer); details: Homo sapiens
# MDA-MB-231/ATCC = test: panel of 60 human tumor cell lines, growth inhibition (Breast Cancer); details: Homo sapiens
# OVCAR-8 = test: panel of 60 human tumor cell lines, growth inhibition (Ovarian Cancer); details: Homo sapiens
# HCT-116 = test: panel of 60 human tumor cell lines, growth inhibition (Colon Cancer); details: Homo sapiens
# OVCAR-3 = test: panel of 60 human tumor cell lines, growth inhibition (Ovarian Cancer)
# SK-MEL-2 = test: panel of 60 human tumor cell lines, growth inhibition (Melanoma); details: Homo sapiens
# SNB-75 = test: panel of 60 human tumor cell lines, growth inhibition (CNS Cancer); details: Homo sapiens
# TK-10 = test: panel of 60 human tumor cell lines, growth inhibition (Renal Cancer); details: Homo sapiens
# CCRF-CEM = test: panel of 60 human tumor cell lines, growth inhibition (Leukemia); details: Homo sapiens
# UACC-257 = test: panel of 60 human tumor cell lines, growth inhibition (Melanoma)
# SR = test: panel of 60 human tumor cell lines, growth inhibition (Leukemia); details: Homo sapiens
# SN12C = test: panel of 60 human tumor cell lines, growth inhibition (Renal Cancer); details: Homo sapiens
compound,measurement,setting,value
C=C1C(=O)O[C@H]2[C@H]1CC/C(COC(=O)NCCCCCCO)=C\CC[C@@]1(C)O[C@@H]21 [JVM 2-31],GI50,SK-MEL-28; SK-MEL-28,5.21 µM
same,CC50,"SK-MEL-28; SK-MEL-28, read-out: LC50",43.7 µM
same,IC (TGI),"SK-MEL-28; SK-MEL-28, read-out: TGI",18.1 µM
same,Percent Growth,HT29; Log10 Concentration −4.0,−61%
same,Percent Growth,HT29; Log10 Concentration −5.0,93%
same,Percent Growth,HT29; Log10 Concentration −6.0,102%
same,Percent Growth,HT29; Log10 Concentration −7.0,104%
same,Percent Growth,HT29; Log10 Concentration −8.0,101%
same,GI50,"HT29; Homo sapiens, HT-29",19 µM
same,CC50,"HT29; Homo sapiens, HT-29, read-out: LC50",84.8 µM
same,IC (TGI),"HT29; Homo sapiens, HT-29, read-out: TGI",40.1 µM
same,GI50,MDA-MB-468; MDA-MB-468,1.01 µM
same,CC50,"MDA-MB-468; MDA-MB-468, read-out: LC50",35.7 µM
same,IC (TGI),"MDA-MB-468; MDA-MB-468, read-out: TGI",5.23 µM
same,GI50,UACC-62; UACC-62,6.78 µM
same,CC50,"UACC-62; UACC-62, read-out: LC50",53.4 µM
same,IC (TGI),"UACC-62; UACC-62, read-out: TGI",21.4 µM
same,GI50,A549/ATCC; A549,17 µM
same,CC50,"A549/ATCC; A549, read-out: LC50",85.2 µM
same,IC (TGI),"A549/ATCC; A549, read-out: TGI",38 µM
same,GI50,MDA-MB-231/ATCC; MDA-MB-231,8.01 µM
same,CC50,"MDA-MB-231/ATCC; MDA-MB-231, read-out: LC50",57.9 µM
same,IC (TGI),"MDA-MB-231/ATCC; MDA-MB-231, read-out: TGI",20.3 µM
same,GI50,OVCAR-8; OVCAR-8,10.2 µM
same,CC50,"OVCAR-8; OVCAR-8, read-out: LC50",76 µM
same,IC (TGI),"OVCAR-8; OVCAR-8, read-out: TGI",27.9 µM
same,GI50,"HCT-116; HCT-116, HCT-116, NCI five dose",2.78 µM
same,CC50,"HCT-116; HCT-116, read-out: LC50",34 µM
same,IC (TGI),"HCT-116; HCT-116, read-out: TGI",11 µM
same,GI50,"OVCAR-3; Homo sapiens, OVCAR-3",3.4 µM
same,CC50,"OVCAR-3; Homo sapiens, OVCAR-3, read-out: LC50",36 µM
same,IC (TGI),"OVCAR-3; Homo sapiens, OVCAR-3, read-out: TGI",12.1 µM
same,Percent Growth,"OVCAR-3; OVCAR-3, Log10 Concentration −4.0",−97%
same,Percent Growth,"OVCAR-3; OVCAR-3, Log10 Concentration −5.0",9%
same,Percent Growth,"OVCAR-3; OVCAR-3, Log10 Concentration −6.0",97%
same,Percent Growth,"OVCAR-3; OVCAR-3, Log10 Concentration −7.0",111%
same,Percent Growth,"OVCAR-3; OVCAR-3, Log10 Concentration −8.0",105%
same,GI50,SK-MEL-2; SK-MEL-2,14.4 µM
same,CC50,"SK-MEL-2; SK-MEL-2, read-out: LC50",70.4 µM
same,IC (TGI),"SK-MEL-2; SK-MEL-2, read-out: TGI",31.9 µM
same,GI50,SNB-75; SNB-75,5.84 µM
same,CC50,"SNB-75; SNB-75, read-out: LC50",45.6 µM
same,IC (TGI),"SNB-75; SNB-75, read-out: TGI",20.1 µM
same,GI50,"TK-10; TK-10, TK-10, NCI five dose",2.64 µM
same,CC50,"TK-10; TK-10, read-out: LC50",33.3 µM
same,IC (TGI),"TK-10; TK-10, read-out: TGI",9.68 µM
same,GI50,CCRF-CEM; NCI five dose,2.78 µM
same,CC50,CCRF-CEM; read-out: LC50,> 100 µM
same,IC (TGI),CCRF-CEM; read-out: TGI,10.7 µM
same,GI50,"UACC-257; Homo sapiens, UACC-257",8.79 µM
same,CC50,"UACC-257; Homo sapiens, UACC-257, read-out: LC50",64.3 µM
same,Percent Growth,"UACC-257; UACC-257, Log10 Concentration −4.0",−73%
same,Percent Growth,"UACC-257; UACC-257, Log10 Concentration −5.0",47%
same,Percent Growth,"UACC-257; UACC-257, Log10 Concentration −6.0",95%
same,Percent Growth,"UACC-257; UACC-257, Log10 Concentration −7.0",104%
same,Percent Growth,"UACC-257; UACC-257, Log10 Concentration −8.0",102%
same,TGI,"UACC-257; UACC-257, NCI five dose",2.47E−5
same,GI50,SR,2.35 µM
same,CC50,SR; read-out: LC50,> 100 µM
same,IC (TGI),SR; read-out: TGI,13.3 µM
same,Percent Growth,HL-60(TB); Log10 Concentration −4.0,−49%
same,Percent Growth,HL-60(TB); Log10 Concentration −5.0,9%
same,Percent Growth,HL-60(TB); Log10 Concentration −6.0,103%
same,Percent Growth,HL-60(TB); Log10 Concentration −7.0,107%
same,Percent Growth,HL-60(TB); Log10 Concentration −8.0,115%
same,GI50,SN12C,10.4 µM
same,CC50,SN12C; read-out: LC50,69.7 µM
same,IC (TGI),SN12C; read-out: TGI,27 µM
